US20210299286A1, “TETRAZINES FOR HIGH CLICK CONJUGATION YIELD IN VIVO AND HIGH CLICK RELEASE YIELD” (Tagworks Pharmaceuticals B.V., priority 2018, published 2021)

Key:
[1] = system: CC49-TCO-Dox; experiment: In vitro Dox release from CC49-TCO-Dox in 50% mouse serum; type: biochemical
Experimental: (§1) Doxorubicin (Dox) release from the TCO-linked ADC CC49-TCO-Dox with various TZ activators in PBS and 50% mouse serum at 37° C. was evaluated in vitro as described in Rossin et al. Bioconjug. […] The results of these experiments are depicted in Tables 3 (PBS) and 4 (mouse serum). The release reactions were performed in triplicate unless otherwise stated in the result table.

[2] = In vitro tetrazine stability (decrease of UV absorbance at 520 nm); type: physicochemical; details: 10% MeCN/PBS; read-out: In vitro tetrazine stability (h), t1/2 (converted)
Experimental: The stability of tetrazines was evaluated by dissolving them in 10% MeCN/PBS at 37° C. and following the decrease of the tetrazine UV absorbance at 520 nm in time (Table 4).

[3] = system: AVP0458-TCO-MMAE; experiment: MMAE release from diabody ADC with D8-MMAE internal standard (LC-SIM-MS); type: biochemical; details: 10 equiv of tetrazine, PBS/plasma (1/1), 37° C., after 24 h, n=3
Experimental: In an alternative method MMAE release from diabody ADC (AVP0458-TCO-MMAE) was determined by using a deuterated internal standard D8-MMAE. ADC (1.1×10^−10 moles bound MMAE) and D8-MMAE (1.1×10^−10 moles) and 10 equiv of tetrazine were incubated in 100 uL PBS/plasma (1/1) at 37° C.

[4] = Second-order reaction rate constant with TCO derivative by UV spectroscopy; type: physicochemical; details: 25% MeCN/PBS at 20° C.
Experimental: The second-order reaction rate constants were calculated from the rate at which the absorption at 520 nm (specific for the TZ moiety) decreased (Table 4).

[5] = system: LS174T tumor-bearing mice; experiment: Tumor blocking experiment, mice pretreated with IgG-based ADC CC49-TCO-Dox; type: in vivo, mouse; details: CC49-TCO-Dox 5 mg/kg, clearing agent, TZ activator, probe [177Lu]Lu-5.1; compared with the other TZ's
Experimental: (§2) The animal studies were performed in accordance with the principles established by the revised Dutch Act on Animal Experimentation (1997) and were approved by the institutional Animal Welfare Committee of the Maastricht University and Radboud University Nijmegen. The colorectal cancer (LS174T) mouse model was reported in Rossin et al. Bioconjug. Chem., 2016, 27, 1697-1706.
(§3) To assess the in vivo reaction of TZ activators towards TCO-containing ADCs, tumor blocking experiments were performed as described in Rossin et al., Bioconjug. Chem. 2016, 27, 1697-1706.
A series of 3,6-bisalkyl TZ activators (2.1, 2.2, 2.9, 2.11, 2.12) and 3-alkyl-6-pyridyl TZ activators (3.1, 3.2, 3.4) was tested in tumor-bearing mice (n=3-4) pretreated with an IgG-based ADC (CC49-TCO-Dox, DAR ca. 2) at a 5 mg/kg dose. A clearing agent (galactose-albumin-TZ, Rossin et al., J. Nucl. Med. 2013, 54, 1989-1995) was administered to the mice 24 post-ADC injection followed by the TZ activator (dose 10×: ca. 0.033 mmol/kg; close 100×: ca. 0.335 mmol/kg) 2 h later. One-hour after activation the mice were administered the highly reactive radiolabeled probe [^177Lu]Lu-5.1 (ca. 0.335 μmol/kg, ca. 1.5 MBq/mouse) and were euthanized 3 h later. All injections were performed intravenously. Tumors were harvested and the radioactivity was measured by γ-counting along with standards to determine the % injected dose per gram (% ID/g). […]

[6] = system: CC49-TCO-Dox; experiment: In vitro Dox release from CC49-TCO-Dox in PBS; type: biochemical
Experimental: as §1

[7] = In vitro microsomal stability of TZ activators, mouse microsomes; type: in vitro ADME; details: 5 μM activator, 0.5 mg/mL microsomes, normalized to 100% at t=0, LC-MS
Experimental: (§4) The in vitro stability of activators 4.11, 4.13, and 4.15 was tested in the presence of human, mouse, rat and cynomolgus microsomes after 30 min incubation (normalized to 100% at t=0). Control samples were incubated with the same concentration of BSA. The activators (5 μM) were incubated in 20 mM phosphate buffer pH 7.4 containing the microsomes (0.5 mg/mL), 1 mM NADP, 5 mM glucose-6-phosphate, 1 U/mL glucose-6-phosphate dehydrogenase, and 2 mM MgCl2 at 37° C. and the measurements were performed by LC-MS. The amount of activator in solution was quantified using calibration curves.

[8] = In vitro microsomal stability of TZ activators, cynomolgus microsomes; type: in vitro ADME; details: 5 μM activator, 0.5 mg/mL microsomes, normalized to 100% at t=0, LC-MS
Experimental: as §4

[9] = Control incubation with BSA in the microsomal stability test; type: in vitro ADME; details: control samples, same concentration of BSA
Experimental: as §4

[10] = In vitro microsomal stability of TZ activators, rat microsomes; type: in vitro ADME; details: 5 μM activator, 0.5 mg/mL microsomes, normalized to 100% at t=0, LC-MS
Experimental: as §4

[11] = In vitro microsomal stability of TZ activators, human microsomes; type: in vitro ADME; details: 5 μM activator, 0.5 mg/mL microsomes, normalized to 100% at t=0, LC-MS
Experimental: as §4

[12] = system: LS174T tumor-bearing mice; experiment: Tumor blocking experiment, mice pretreated with diabody-based ADC AVP0458-TCO-MMAE; type: in vivo, mouse; details: AVP0458-TCO-MMAE ca. 2 mg/kg, activator 48 h later, probe [111In]In-5.1; compared with the other TZ's
Experimental: as §2, §3
A series of 3-pyrimidyl-6-alkyl TZ activators (4.1, 4.11, 4.13, 4.15, 4.26, 4.28) was then compared to compound 4.12 in LS174T tumor-bearing mice (n=3-5) pretreated with a diabody-based ADC (AVP0458-TCO-MMAE; DAR=4). The mice were injected the ADC at a ca. 2 mg/kg dose followed 48 h later by the activator (dose 1×: ca. 3.35 μmol/kg; dose 2.5×: ca. […]; dose 5×: ca. 0.017 mmol/kg; dose 10×: ca. 0.033 mmol/kg; dose 100×: ca. 0.335 mmol/kg) and, 1 h post-activator, by the [^111In]In-5.1 probe. Three hours ([…], 4.15) or 24 h (4.26, 4.28) post-probe injection the mice were euthanized and the tumor blocking capacity of the various activators at the administered dose (FIG. 2B) was calculated as reported above.

SMILES | In vitro Dox release (%) from CC49-Dox at 37° C. in 50% mouse serum: 1 h ([1]; 1 h) [%] | In vitro Dox release (%) from CC49-Dox at 37° C. in 50% mouse serum: 2 h ([1]; 2 h) [%] | In vitro Dox release (%) from CC49-Dox at 37° C. in 50% mouse serum: 3 h ([1]; 3 h) [%] | half-life [2] [h] | induced MMAE release (%) from AVP0458-TCO-MMAE [3] [%] | reactivity (k2) [4] [M⁻¹ s⁻¹] | tumor blocking capacity (FIG. 2A) [5] | In vitro Dox release (%) from CC49-Dox at 37° C. in PBS: 1 h ([6]; 1 h) [%] | In vitro Dox release (%) from CC49-Dox at 37° C. in PBS: 2 h ([6]; 2 h) [%] | In vitro Dox release (%) from CC49-Dox at 37° C. in PBS: 3 h ([6]; 3 h) [%] | In vitro Dox release (%) from CC49-Dox at 37° C. in PBS: 24 h ([6]; 24 h) [%] | In vitro Dox release (%) from CC49-Dox at 37° C. in PBS: 48 h ([6]; 48 h) [%] | In vitro microsomal stability of TZ activators after 30 min incubation at 37° C.: Mouse [7] [%] | In vitro microsomal stability of TZ activators after 30 min incubation at 37° C.: Cynomolgus [8] [%] | In vitro microsomal stability of TZ activators after 30 min incubation at 37° C.: BSA [9] [%] | In vitro microsomal stability of TZ activators after 30 min incubation at 37° C.: Rat [10] [%] | In vitro microsomal stability of TZ activators after 30 min incubation at 37° C.: Human [11] [%] | tumor blocking capacity (FIG. 2B) [12]
Cc1nnc(C)nn1 [Compound 2.1, 3,6-dimethyl-1,2,4,5-tetrazine] | 64.6 ± 1.0 | 68.7 ± 1.1 | 69.7 ± 1.0 | 14 | 95 ± 0.4 | 14 | perform much worse | 76.1 | 78.5 | 78.8 | 80.6 | 81.5 | – | – | – | – | – | –
CN(CCc1nnc(-c2ncccn2)nn1)C(=O)CCCC(=O)NC(CO)(CO)CO [Compound 4.15] | – | – | – | – | 55 ± 0.4 | – | – | – | – | – | – | – | 81.2 | 85.6 ± 0.5 | 87.5 | 91.1 | 87.7 | –
Cc1nnc(-c2ncccn2)nn1 [Compound 4.1, 3-methyl-6-(pyrimidin-2-yl)-1,2,4,5-tetrazine, reference compound] | – | – | – | 10 | 69 ± 0.0 | 250 | – | – | – | – | – | – | – | – | – | – | – | perform much worse
